Test results reported in patent US20250064789A1, “KETOAMIDE DERIVATIVES AND PHARMACEUTICAL USES THEREOF” (priority 2022, published 2025).

How the values were obtained:
in vivo = settings: male, Sprague-Dawley, rat
[1] = molecular target: recombinant SARS-CoV-2 M^pro (Severe acute respiratory syndrome coronavirus 2 (2019-nCoV) (SARS-CoV-2), UniProt P0DTD1); experiment: Inhibition of SARS-CoV-2 M^pro enzyme activity (fluorescent substrate assay); type: biochemical; settings: inhibition of SARS-CoV-2 M^pro enzyme activity; values in nM; read-out: IC50
[2] = male, Sprague-Dawley, rat, in vivo, iv, 1 mg/kg
[3] = Cytotoxic assay against Vero E6 cells (MTT, 72 h); type: cell-based; settings: African green monkey
Experimental: The cytotoxicity assessment of compounds was performed against Vero E6 cells. The specific experimental procedures: Vero E6 cells were seeded into a 96-well plate at a cell density of 2×10^4 cells/well, with 100 μL/well, and then incubated overnight at 37° C. in a 5% CO2 incubator. The next day, 100 μL of drug-containing medium was added to each well. The compound was diluted in a 2-fold serial dilution with a top concentration of […], for a total of 6 gradients. Three repeated wells were set for each concentration, and negative controls and blank controls without drugs were included for each experiment. […] All experimental data were analyzed using GraphPad Prism software.

[4] = Cytotoxic assay against HUVEC cells (MTT, 72 h); type: cell-based, human; settings: human
Experimental: (§1) BEAS-2B cells (normal human bronchial epithelial cells) and HUVEC cells (human umbilical vein endothelial cells) were used to evaluate the cytotoxicity of compounds against human-derived cells. The detailed experimental procedures: BEAS-2B cells or HUVEC cells were seeded into a 96-well plate at a cell density of 2×10^4 cells/well, that is, 100 µL/well, and then incubated overnight at 37° C. in a 5% CO2 incubator. The next day, 100 μL of drug-containing medium was added to each well. The compound was diluted in a 2-fold serial dilution with a top concentration of […], for a total of 6 gradients. Three repeated wells were set for each concentration, and negative controls and blank controls without drugs were included for each experiment. […] All experimental data were analyzed using GraphPad Prism software.

[5] = Cytotoxic assay against human BEAS-2B cells (MTT, 72 h); type: cell-based; settings: human
Experimental: as §1

Row | SMILES | AUC(0-inf) (in vivo; iv, 1 mg/kg) [ng·h/mL] | AUC(0-t) (in vivo; iv, 1 mg/kg) [ng·h/mL] | Cmax (in vivo; iv, 1 mg/kg) [ng/mL] | MRT inf (in vivo; iv, 1 mg/kg) [h] | Tmax (in vivo; iv, 1 mg/kg) [h] | clearance (in vivo; iv, 1 mg/kg) [mL/min/kg] | half-life (in vivo; iv, 1 mg/kg) [h] | AUC(0-inf) (in vivo; po, 10 mg/kg) [ng·h/mL] | AUC(0-t) (in vivo; po, 10 mg/kg) [ng·h/mL] | Cmax (in vivo; po, 10 mg/kg) [ng/mL] | MRT inf (in vivo; po, 10 mg/kg) [h] | Tmax (in vivo; po, 10 mg/kg) [h] | bioavailability (in vivo; po, 10 mg/kg) [%] | half-life (in vivo; po, 10 mg/kg) [h] | IC50 [1] [nM] | Vssobs [2] [L/kg] | CC50 at 72 h [3] [nM] | CC50 at 72 h [4] [nM] | CC50 at 72 h [5] [nM]
1 | C[C@@H](NC(=O)[C@@H]1C[C@@H]2[C@H](C1)C2(F)F)C(=O)N[C@H](Cc1ccccc1)C(=O)C(=O)NCc1ccccn1 [Compound 126] | 1070 ± 295 | 1050 ± 285 | 1860 ± 138 | 1.06 ± 0.56 | 0.08 | 4.63 ± 3.62 | 3.65 ± 3.48 | 5270 ± 327 | 5270 ± 325 | 1559 ± 11.6 | 4.02 ± 0.17 | 0.5 | 49.9 ± 3.08 | 2.46 ± 0.15 | 11.1 ± 0.6 | 16.6 ± 5.41 | > 500000 | – | –
2 | C[C@@H](NC(=O)C1CCC(F)(F)CC1)C(=O)N[C@H](Cc1ccccc1)C(=O)C(=O)NCc1ccccn1 [Compound 145] | 1180 ± 208 | 1160 ± 205 | 1640 ± 86.6 | 1.09 ± 0.13 | 0.08 | 1.73 ± 0.37 | 1.37 ± 0.05 | 3850 ± 875 | 3830 ± 872 | 1170 ± 223 | 3.75 ± 0.56 | 0.33 ± 0.14 | 32.9 ± 7.51 | 3.19 ± 0.06 | 17.1 ± 2.5 | 14.5 ± 2.62 | – | – | –
3 | O=C(CC1CCC(F)(F)CC1)NCC(=O)N[C@H](Cc1ccccc1)C(=O)C(=O)NCc1ccccn1 [Compound 150] | 6630 ± 2650 | 6420 ± 2820 | 2010 ± 322 | 3.94 ± 1.26 | 0.08 | 0.83 ± 0.21 | 3.59 ± 0.8 | 12900 ± 3230 | 12600 ± 3080 | 1300 ± 307 | 5.95 ± 0.09 | 0.42 ± 0.14 | 19.7 ± 4.8 | 4.26 ± 0.63 | 12.2 ± 0.1 | 2.91 ± 1.48 | > 500000 | – | –
4 | O=C(CCC1CCC(F)(F)CC1)NCC(=O)N[C@H](Cc1ccccc1)C(=O)C(=O)NCc1ccccn1 [Compound 153] | – | – | – | – | – | – | – | 26000 ± 265 | 23500 ± 676 | 1980 ± 97.7 | 7.08 ± 0.25 | 1.67 ± 0.58 | – | 7.14 ± 0.46 | 12 ± 0.6 | – | – | – | –
5 | O=C(CNC(=O)C1CCC(F)(F)CC1)N[C@H](Cc1ccccc1)C(=O)C(=O)NCc1ccccn1 [Compound 155] | 5120 ± 628 | 5100 ± 615 | 1570 ± 7.88 | 3.99 ± 0.42 | 0.08 | 0.88 ± 0.1 | 3.12 ± 0.35 | 12400 ± 2230 | 12300 ± 2270 | 1150 ± 289 | 5.98 ± 0.36 | 0.33 ± 0.14 | – | 3.75 ± 0.62 | 14.1 ± 0.1 | 3.29 ± 0.42 | 281000 | – | –
6 | CC(C)(NC(=O)C1CCC(F)(F)CC1)C(=O)N[C@H](Cc1ccccc1)C(=O)C(=O)NCc1ccccn1 [Compound 172] | – | – | – | – | – | – | – | – | – | – | – | – | – | – | 14.9 ± 0.7 | – | 341000 | – | –
7 | CC(C)(NC(=O)[C@@H]1C[C@@H]2[C@H](C1)C2(F)F)C(=O)N[C@H](Cc1ccccc1)C(=O)C(=O)NCc1ccccn1 [Compound 174] | – | – | – | – | – | – | – | – | – | – | – | – | – | – | 13.2 ± 1 | – | > 500000 | – | –
8 | CC(C)(NC(=O)c1cc(OC(F)(F)F)ccc1F)C(=O)N[C@H](Cc1ccccc1)C(=O)C(=O)NCc1ccccn1 [Compound 177] | – | – | – | – | – | – | – | – | – | – | – | – | – | – | 10.5 ± 0.2 | – | 157000 | – | –
9 | O=C(NCc1ccccn1)C(=O)[C@@H](Cc1ccccc1)NC(=O)[C@H]1COCCN1C(=O)C1CCC(F)(F)CC1 [Compound 288] | – | – | – | – | – | – | – | 3500 ± 1250 | 3490 ± 1250 | 1140 ± 207 | 3.59 ± 0.11 | 0.75 ± 0.43 | – | 3.03 ± 0.36 | 14.6 ± 0.4 | – | – | – | –
10 | O=C(NCc1ccccn1)C(=O)[C@@H](Cc1ccccc1)NC(=O)[C@H]1COCCN1C(=O)CC1CCC(F)(F)CC1 [Compound 289] | – | – | – | – | – | – | – | 3250 ± 462 | 3240 ± 460 | 1040 ± 349 | 2.98 ± 0.33 | 0.5 | – | 3.28 ± 0.19 | 10.6 ± 0.1 | – | > 500000 | – | –
11 | O=C(NCc1ccccn1)C(=O)[C@@H](Cc1ccccc1)NC(=O)[C@H]1COCCN1C(=O)[C@H](NC(=O)c1cnccn1)C1CCCCC1 [Compound 290] | – | – | – | – | – | – | – | 3120 ± 894 | 3110 ± 894 | 722 ± 235 | 4.16 ± 0.3 | 0.5 | – | 2.66 ± 0.11 | 11.3 ± 0.2 | – | – | – | –
12 | C[C@@H](NC(=O)N1CCC(F)(F)CC1)C(=O)N[C@H](Cc1ccccc1)C(=O)C(=O)NCc1ccccn1 [Compound 296, N—((R)-1-(((R)-3,4-dioxo-1-phenyl-4-((pyridin-2-ylmethyl)amino)butan-2-yl)amino)-1-oxopropan-2-yl)-4,4-difluoropiperidin-1-formamide] | 1040 ± 162 | 1020 ± 156 | 1400 ± 22.9 | 1.17 ± 0.44 | 0.08 | 4.65 ± 3.87 | 3.55 ± 3.39 | 5190 ± 1010 | 5180 ± 1010 | 1040 ± 209 | 4.43 ± 0.87 | 0.25 | 50.6 ± 9.84 | 2.8 ± 0.09 | 14.8 ± 0.1 | 16.3 ± 2.68 | – | – | –
13 | C[C@@H](NC(=O)C1CCC(F)(F)CC1)C(=O)N[C@H](Cc1ccccc1)C(=O)C(=O)NCc1ccccn1 [Compound 317] | – | – | – | – | – | – | – | – | – | – | – | – | – | – | 16 ± 0.3 | – | > 500000 | – | –
14 | CC(C)(C(=O)NCC1CCC(F)(F)CC1)C(=O)N[C@H](Cc1ccccc1)C(=O)C(=O)NCc1ccccn1 [Compound 324, (R)—N^1-((4,4-difluorocyclohexyl)methyl)-N^3-(3,4-dioxo-1-phenyl-4-((pyridin-2-ylmethyl)amino)butan-2-yl)-2,2-dimethylmalonamide] | – | – | – | – | – | – | – | – | – | – | – | – | – | – | 9.6 ± 0.1 | – | > 500000 | – | –
15 | O=C(CNC(=O)C1CC12CCC(F)(F)CC2)N[C@H](Cc1ccccc1)C(=O)C(=O)NCc1ccccn1 (stereo partly drawn) [Compound 333] | – | – | – | – | – | – | – | 22400 ± 10800 | 18700 ± 9060 | 1590 ± 573 | 7.47 ± 0.38 | 0.92 ± 0.95 | – | 9.74 ± 0.38 | 13.4 ± 0.2 | – | – | – | –
16 | C[C@@H](NC(=O)C1CCCC(F)(F)C1)C(=O)N[C@H](Cc1ccccc1)C(=O)C(=O)NCc1nccs1 (stereo partly drawn) [Compound 375] | – | – | – | – | – | – | – | – | – | – | – | – | – | – | 13.8 ± 1.2 | – | > 500000 | 384000 | 325000
